From patent US20050112183A1, “Compositions and methods for treating neuropathic sensory loss” (priority 2003, published 2005)

Test system: neuropathically induced negative sensory phenomena (NSP)
Assay: application of local anesthetic to diabetic neuropathy patients, patient-reported
Format: in vivo
Conditions: some diabetic neuropathy patients; local application of the anesthetic
Excerpt: It has previously been assumed that positive sensory phenomena (“PSP”) is caused by an increase in spontaneous nerve discharge from damaged and dysfunctional peripheral nerves. […] Based on the current understanding of the underlying etiology of NSP it would be unexpected that an anesthetic would effectively mitigate the negative effects of NSP. It has now been found, however, that the application of local anesthetics such as lidocaine can effectively treat NSP. For example, some diabetic neuropathy patients reported both pain relief and improved NSP, that is, the patients experienced pain relief, improvement of sensory loss (decreased numbness), and improved tactile response (they could better feel objects touching their skin). Thus the anesthetic as applied in this embodiment decreased numbness. This is contrary to all prior teachings about anesthetics.

For CCN(CC)CC(=O)Nc1c(C)cccc1C [lidocaine, 2-(diethylamino)-N-(2,6-dimethylphenyl)-acetamide], the “negative sensory phenomena (NSP: numbness, sensory loss, tactile response) as reported by patients” value was “improved NSP” and the “pain as reported by patients” value was “pain relief”.
